Assay results from US20230374148A1, “BINDING MOLECULES THAT MULTIMERISE CD45” (UCB BIOPHARMA SRL, priority 2020, published 2023).

Experiments:
[1] = tested on: MC116; assay: Apoptosis of cell lines: MC116; format: cell-based; details: MC116, 21 hrs, 500 nM
From the text: (§1) The following cell lines representing various leukaemia's and lymphoma's, as classified by ATCC (www.atcc.org/), were used: Jurkat—acute T-cell leukaemia; CCRF-SB—B-cell acute lymphoblastic leukaemia; MC116—B-cell undifferentiated lymphoma; Raji, Ramos—Burkitt lymphoma (rare form of B-cell non-Hodgkin lymphoma); SU-DHL-4, SU-DHL-5, SU-DHL-8, NU-DUL-1, OCI-Ly3—Diffuse large B-cell lymphoma; THP-1—acute monocytic leukaemia; and Dakiki—B cell nasopharyngeal carcinoma.
(§2) Prior to an assay being performed, 1 vial of each of the above cell lines was thawed in a 37° C. water bath and then added to 20 ml complete media (RPMI 1640+2 mM GlutaMAX+1% Pen/Strep, all previous supplied by Invitrogen, +10% Fetal Bovine Serum (FBS), Sigma Aldrich). Cells were spun (500 g, 5 min, at RT) and re-suspended in 20 ml complete media to wash and spun again. Cells were resuspended in 10 ml complete media and then counted using a ChemoMetec NucleoCounter NC-3000. 6×10^6 cells of each cell line were spun (500 g, 5 min, at RT) and re-suspended in 4.8 ml complete media. 1×10^5 cells in 80 μl were then added to each well of a Corning Costar 96-well, cell culture treated, U-shaped-bottom microplate (cat no. 07-200-95). The plate was rested in a 37° C., 5% CO2 incubator for 2 hrs
(§3) Stocks of 4133-6294 BYbe and NegCtrl BYbe at 2500 nM in complete media were prepared. In a Greiner 96-well non-binding microplate, both reagents were serially diluted in complete media 1 in 5, seven times to produce to form an 8-point dose curve. […] (final well concentrations 500-0.0064 nM) was added to the cells. Each concentration was produced in triplicate. Camptothecin (cat no. C9911-100MG, Sigma Aldrich) and Staurosporine (cat no. 56942-200UL, Sigma Aldrich) were added as positive controls of apoptosis. Both were diluted in complete media and added to the well to produce a final concentration of 5 μM. Additional positive controls included anti-thymocyte globulin (ATG, indicated by FDA for use in conditioning regimens), Rituximab (anti-CD20, indicated by FDA for Non-Hodgkin Lymphoma and Chronic Lymphocytic Leukaemia) and Campath (anti-CD52, indicated by FDA for B-cell Chronic Lymphocytic Leukaemia). Anti-thymocyte globulin, Rituximab and Campath were added to the wells to produce final concentrations of 200 μg/ml, 500 nM and 200 μg/ml, respectively. […]
(§4) Following the incubation, the plates were spun at 500 g, 5 min, RT, the buffer was aspirated with a BioTek ELx405 microplate washer, and the cells were re-suspended in FACS buffer (PBS+1% bovine serum albumin (BSA)+0.1% NaN3+2 mM EDTA, Sigma Aldrich) to wash and then re-spun and buffer was aspirated to leave the cells in 20 μl residual media. […] Cells were analysed using the Bio-Rad ZE5 Cell Analyzer. […]

[2] = tested on: SU-DHL-4; assay: Apoptosis of cell lines: SU-DHL-4; format: cell-based; details: SU-DHL-4, 21 hrs, 500 nM
From the text: as §1, §2, §3, §4

[3] = tested on: Ramos; assay: Apoptosis of cell lines: Ramos; format: cell-based; details: 21 hrs, 500 nM
From the text: as §1, §2, §3, §4

[4] = tested on: THP-1; assay: Apoptosis of cell lines: THP-1; format: cell-based; details: THP-1, 21 hrs, 500 nM
From the text: as §1, §2, §3, §4

[5] = tested on: OCI-Ly3; assay: Apoptosis of cell lines: OCI-Ly3; format: cell-based; details: OCI-Ly3, 21 hrs, 500 nM
From the text: as §1, §2, §3, §4

[6] = tested on: SU-DHL-5; assay: Apoptosis of cell lines: SU-DHL-5; format: cell-based; details: SU-DHL-5, 21 hrs, 500 nM
From the text: as §1, §2, §3, §4

[7] = tested on: Raji; assay: Apoptosis of cell lines: Raji; format: cell-based; details: 21 hrs, 500 nM
From the text: as §1, §2, §3, §4

[8] = tested on: NU-DUL-1; assay: Apoptosis of cell lines: NU-DUL-1; format: cell-based; details: NU-DUL-1, 21 hrs, 500 nM
From the text: as §1, §2, §3, §4

[9] = tested on: Dakiki; assay: Apoptosis of cell lines: Dakiki; format: cell-based; details: 21 hrs, 500 nM
From the text: as §1, §2, §3, §4

[10] = tested on: Jurkat; assay: Apoptosis of cell lines: Jurkat; format: cell-based; details: 21 hrs, 500 nM
From the text: as §1, §2, §3, §4

[11] = tested on: CCRF-SB; assay: Apoptosis of cell lines: CCRF-SB; format: cell-based; details: 21 hrs, 500 nM
From the text: as §1, §2, §3, §4

[12] = tested on: SU-DHL-8; assay: Apoptosis of cell lines: SU-DHL-8; format: cell-based; details: SU-DHL-8, 21 hrs, 500 nM
From the text: as §1, §2, §3, §4

[13] = target: T1, CD45 domains 1-4 of the extracellular domain (UniProtKB P08575, residues 225-573) with C-terminal TEV cleavage site and 10-His tag (human); assay: SPR, Biacore 3000, 25 C; Fab captured by anti-mouse F(ab)2, CD45 D1-D4 titrated 50 nM to 0.05 nM
[14] = target: T1, CD45 domains 1-4 of the extracellular domain; assay: SPR, Biacore 3000, 25 C; Fab captured by anti-rabbit F(ab)2, CD45 D1-D4 titrated 50 nM to 0.05 nM

## Rituximab: anti-CD20, indicated by FDA for Non-Hodgkin Lymphoma and Chronic Lymphocytic Leukaemia; positive control [reference compound]
[1]
  Rituximab mean (%) cell reduction: 98.13%
[2]
  Rituximab mean (%) cell reduction: 79.76%
[3]
  Rituximab mean (%) cell reduction: 91.05%
[4]
  Rituximab mean (%) cell reduction: 23.12%
[5]
  Rituximab mean (%) cell reduction: 19.05%
[6]
  Rituximab mean (%) cell reduction: 61.26%
[7]
  Rituximab mean (%) cell reduction: 87.89%
[8]
  Rituximab mean (%) cell reduction: 87.04%
[9]
  Rituximab mean (%) cell reduction: 58.55%
[10]
  Rituximab mean (%) cell reduction: 6.52%
[11]
  Rituximab mean (%) cell reduction: 59.87%
[12]
  Rituximab mean (%) cell reduction: 15.25%

B1: 6294 mouse Fab (Fab, V domains shown)
VH: EVQLVESGAELARPGASVKMSCKASGYTFTSYTMHWVKQRPGQGLEWIGYINPSSGYTEYNQKFKDKTTLTADKSSSTAYLQLSSLTSEDSAVYYCARVGDGFYPSWLAYWGQGTLVTVSS
VL: DIQMTQSPKFLLVSAGDRVTITCKASQSVRNDVAWYQQKPGQSPKLLIFYASKRYTGVPDRFTGSGYGTDFTFTISTVQAEDLAVYFCQQDYSSPTTFGGGTKLEIK
[13]
  Kd: 0.085 nM
  koff: 0.00022 s⁻¹
  kon: 2.6e+06 M⁻¹ s⁻¹

B2: 4133 rabbit Fab (Fab, V domains shown)
VH: QEQLVESGGGLVQPEGSLTLTCTASGFSFSGNYYMCWVRQAPGKGLEWIGCLYTGSSGSTYYASWAKGRFTISKTSSTTVTLQMTSLTAADTATYFCARDLGYEIDGYGGLWGQGTLVTVSS
VL: AQVLTQTPSPVSAVVGGTVSISCQASQSVYNNNNLSWYQQKPGQPPKLLIYDASKLASGVPSRFKGSGSGTQFTLTISGVQCDDAATYYCLGGYYSSGWYFAFGGGTKVVVKR
[14]
  Kd: 61 nM
  koff: 0.035 s⁻¹
  kon: 570000 M⁻¹ s⁻¹
